From patent publication US12171743B2, “Forms of aticaprant” (Janssen Pharmaceuticals, Inc., priority 2022, dated 2024)

Tested on: subjects with MDD
Test: SHAPS total score (anhedonia), same study
Format: in vivo, human
Details: for SHAPS Total Score Change from Baseline LSMean Difference (SE) Treatment-Placebo: MMRM
Description: To assess a potential effect on anhedonia, an anhedonia scale may be used. For example, the Snaith-Hamilton Pleasure Scale (SHAPS) analysis is a validated scale for the measurement of anhedonia. The SHAPS is a subject completed scale in which subjects score whether or not they experience pleasure in performing a list of activities or experiences. The SHAPS is a self-reported 14-item instrument, developed for the assessment of hedonic capacity. Subjects score whether they experience pleasure in performing a list of activities or experiences. Subjects can rate the answers as 1˜4 where 1 indicates “Definitely agree”, 2 indicates “Agree”, 3 indicates “Disagree” and 4 indicates “Definitely disagree”. The subject's item responses are summed to provide a total score ranging from 14 to 56. A higher total SHAPS score indicates higher levels of current anhedonia. Physician/clinical judgment can be used to assess anhedonia separately or in conjunction with an anhedonia scale.
In some embodiments, the patient has moderate anhedonia. In other embodiments, the patient has severe anhedonia. An assessment of moderate or severe anhedonia is typically determined physician/clinical judgment and/or by one or more tests that provide insight into whether a patient has anhedonia. For example, the severity of the anhedonia may be determined using the SHAPS method. In some embodiments, a patient with moderate or severe anhedonia is considered to have a high level of anhedonia. For example, a patient with a SHAPS score of 38 or greater is considered to have moderate to severe anhedonia that can be considered a high level of anhedonia. In some embodiments, a high level of anhedonia is reflected by a SHAPS score of at least about 40, about 42, about 44, about 46, about 48, about 50, about 52, about 54, about 56, […]. A patient with mild or no anhedonia would be considered to have a low level of anhedonia that is assessed by physician/clinical judgment and/or one or more tests. For example, a patient with a SHAPS score of less than 38 is considered to have low anhedonia. In certain embodiments, a patient with mild anhedonia may have a SHAPS score of 20 to less than 38, for example, a SHAPS score of 20 to about 36, about 22 to about 36, about 24 to about 36, about 26 to about 36, about 26 to about 34, about 26 to about 32, about 26 to about 30, about 26 to about 28, about 28 to about 36, about 28 to about 36, about 30, to about 36, about 32 to about 36, about 34 to about 36, about 20 to about 34, about 22 to about 34, about 24 to about 34, about 26 to about 32, about 26 to about 30, about 26 to about 28, about 28 to about 36, about 28 to about 34, about 28 to about 32, about 28 to about 30, about 30 to about 36, about 30 to about 34, about 30 to about 32, about 32 to about 36, about 32 to about 34, or about 34 to about 36. Typically, a SHAPS score of less than 20 can be considered to correspond to normal hedonic functioning, and for purposes of this disclosure, would fall into the low category of anhedonia, e.g., a SHAPS score of less than 38.
The secondary objectives are: • i. […] To investigate the effect of aticaprant versus placebo on depression related anhedonia as assessed by the SHAPS. • iv.

[1] = fITT Analysis Set, Treatment Week 5
[2] = number of subjects, eITT Analysis Set, Treatment Baseline, N 60
[3] = number of subjects, eITT Analysis Set, Treatment Week 6, N 59
[4] = number of subjects, fITT Analysis Set, Baseline/Day 22 (before treatment), N 83
[5] = number of subjects, fITT Analysis Set, Treatment Baseline, N 83

Cc1cc(C)cc(C2CCCN2Cc2ccc(Oc3ccc(C(N)=O)cc3F)cc2)c1 (stereo not drawn) [aticaprant, 3-fluoro-4-4-2-(3,5-dimethylphenyl) pyrrolidin-1-yl-methylphenoxybenzamide]
SHAPS Total Score Change from Baseline LSMean Difference (SE) Treatment-Placebo (eITT Analysis Set, Treatment Week 1): −0.8 | SHAPS Total Score Change from Baseline LSMean Difference (SE) Treatment-Placebo (eITT Analysis Set, Treatment Week 3): −1.4 | SHAPS Total Score Change from Baseline LSMean Difference (SE) Treatment-Placebo (eITT Analysis Set, Treatment Week 4): −1.4 | SHAPS Total Score Change from Baseline LSMean Difference (SE) Treatment-Placebo (eITT Analysis Set, Treatment Week 5): −0.5 | SHAPS Total Score Change from Baseline LSMean Difference (SE) Treatment-Placebo (eITT Analysis Set, Treatment Week 6): −0.7 | SHAPS Total Score Effect Size (eITT Analysis Set, Treatment Week 6, negative favors aticaprant): −0.07 | SHAPS total score: mean change from treatment baseline (SD) (eITT, Treatment Week 6): −4.6 (6.23) | SHAPS total score: observed effect size (eITT, Treatment Week 6): 0.07 | Frequency of Subjects: No Anhedonia (SHAPS Total Score < 20) (fITT Analysis Set, Baseline/Day 22 (before treatment), N 83): 1.2% | Frequency of Subjects: No Anhedonia (SHAPS Total Score < 20) (fITT Analysis Set, Treatment Baseline, N 83 (Table 64)): 1.2% | SHAPS Total Score Change from Baseline LSMean Difference (SE) Treatment-Placebo (fITT Analysis Set, Treatment Week 1): −1.0 (0.72) | SHAPS Total Score Change from Baseline LSMean Difference (SE) Treatment-Placebo (fITT Analysis Set, Treatment Week 3): −1.4 (0.73) | SHAPS Total Score Change from Baseline LSMean Difference (SE) Treatment-Placebo (fITT Analysis Set, Treatment Week 4): −1.6 (0.73) | SHAPS Total Score Mean Change from Baseline (SD) [1]: −4.3 (5.70) | SHAPS Total Score Change from Baseline LSMean Difference (SE) Treatment-Placebo [1]: −0.8 (0.73) | SHAPS Total Score Change from Baseline LSMean Difference (SE) Treatment-Placebo (fITT Analysis Set, Treatment Week 6): −0.8 (0.73) | Frequency of Subjects: High Level of Anhedonia (SHAPS Total Score >= 38) [2]: 26 | Frequency of Subjects: Low Level of Anhedonia Score < 20) Total Score < 38) [2]: 34 | Frequency of Subjects: No Anhedonia (SHAPS Total) [2]: 0 | Frequency of Subjects: High Level of Anhedonia (SHAPS Total Score >= 38) [3]: 8 | Frequency of Subjects: Low Level of Anhedonia Score < 20) Total Score < 38) [3]: 48 | Frequency of Subjects: No Anhedonia (SHAPS Total) [3]: 3 | Frequency of Subjects: Anhedonia (SHAPS Total Score >= 20) [4]: 82 | Frequency of Subjects: No Anhedonia (SHAPS Total Score < 20) [4]: 1 | Frequency of Subjects: High Level of Anhedonia (SHAPS Total Score >= 38) [5]: 30 | Frequency of Subjects: Low Level of Anhedonia (20 >= SHAPS Total Score < 38) [5]: 52 | Frequency of Subjects: No Anhedonia (SHAPS Total Score < 20) (number of subjects, fITT Analysis Set, Treatment Baseline, N 83 (Table 64)): 1
